US4150970A, “Growth regulator for plants” (Board of Trustees of Michigan State University, priority 1977, dated 1979)

Assays:
[1] = test system: IR-8 rice seedlings; test: Single versus multiple applications on rice seedlings (Example XI); type: in vivo
Procedure: (§1) Rice seed cv. IR-8, or Starbonnet was surface treated with 0.1 percent mercuric chloride and planted in 77 cc plastic cups containing vermiculite and watered with one-fourth Hoagland's nutrient solution containing 3 mM of nitrogen at pH 5.0. After 10 days, seedlings were transplanted to 220 cc specimen cups wrapped in aluminum foil and containing 180 cc of the same Hoagland's nutrient solution. Four seedlings were suspended in the solution with a sponge rubber disc. The plants were grown under a 8 h night at 25° C. and a 16 h day at 30° C. with 21 and 8 μwatts per cm^2 in the blue and red spectra respectively. In the test with varying light intensity the high light intensity was 30 13 and the low intensity was 15 and 8 μwatts per cm^2 for the blue and red spectra respectively. The nutrient solution was renewed every 2 or 3 days. After one week the plants were sorted for size and similar sized plants assigned to the same block for the experiment. Prior to the initiation of a test the plants in each cup were assigned treatment numbers by use of a random number table. […] Sixteen hours prior to a test the foil wrapped cups were tared, and filled with one-half Hoaglands solution containing 6 mM nitrogen. Eighteen μl of chloroform or chloroform containing 1.8 μg triacontanol were placed on 2 cm^2 of Whatman No. 1 filter papers, air dried and placed in the specimen cups. This concentration of 10 μg triacontanol/liter was used for all tests described in the following Examples except where specifically indicated to the contrary. Immediately prior to the test the cups were all brought up to 180 ml. including a set of cups without plants to measure evaporation.
Water uptake was measured by weighing the cups after removal of the plants and subtracting the tare and the water evaporated. For tests continued for more than one day, the solution used was measured every 3 days and new Hoagland's added and the pH maintained at 5.0 with sulfuric acid.
In this Example, the experiment determined the growth of "IR-8" rice seedlings by comparing a single application of triacontanol with multiple applications of triacontanol. Triacontanol was applied at the beginning of each indicated period.

[2] = test system: IR-8 rice seedlings; test: Growth analysis (NAR, RGR, LAR) of IR-8 rice seedlings (Example V); type: in vivo
Procedure: as §1
The plants were disected at harvest into shoots and roots. The expanded leaves were cut at the ligule and the newest leaf at the point it entered the sheath. The surface area of expanded leaves were measured using a Lambda Model LI-3000 planimeter. The plants were dried to constant weight in an oven at 100° C. and the roots, expanded leaves, and sheaths were weighed separately.
Growth analysis was conducted according to Evans (1972). The Net Assimulation Rate (NAR) is the increase in plant weight per unit of leaf area over time interval where: W=total weight per plant in mg, T=time in days, and L=leaf area in cm^2. [formula]
The relative growth rate (RGR) is the increase in plant weight per unit of original weight over a time interval and is obtained by: [formula]
The leaf area ratio is the ratio of leaf area to […] over a time interval. [formula]
IR-8 rice seedlings were grown as above explained and were tested at 8 hour, 24 hour, 72 hour, and 216 hour intervals. Control (no treatment) plants are indicated by "0" and triacontanol treated plants are indicated by "+" in Table V. The Net Assimulation Rate (NAR), the Relative Growth Rate (RGR) and the Lead Area Ratio (LAR) was determined for each plant at each interval.

[3] = test system: Heinz 1350 tomato seedlings; test: Tomato seedlings in nutrient culture, two application methods (Table XIII); type: in vivo
Excerpt: These tests were run to determine the response of "Heinz 1350" tomato seedlings to applications of triacontanol in nutrient culture, in two different application methods.

[4] = test system: tobacco callus; test: Growth of tobacco callus, triacontanol and octocosanol (Example XIX, FIG. 6); type: cell-based, Nicotiana tabacum, var. Wisconsin 38; settings: 10 days; for growth over the control: four concentrations
Procedure: Cell cultures were separately grown in disposable petri dishes.
1. Haploid tobacco (Nicotiana tabacum, var. Wisconsin 38)
The cultures were grown on the basic medium of mineral salts described by Linsmaier and Skoog (Physiol. Plant, […] (1965)). Vitamins and hormones varied for each tissue (Table X-1) to maintain the tissues in an undifferentiated state. For all of the tissues inositol was 100 mg/liter and agar 1%. Sucrose was 3% for all but the bean which was 2%.
Callus was produced from pith for tobacco, potato and tomato. Bean callus was produced from hypocotyl sections and barley callus from immature ovarian tissue. Subcultures were maintained on the appropriate media.
Stock solutions of triacontanol were prepared at a concentration of 100 μg/ml. The solvent used was glass distilled benzene. The lower concentrations were obtained by serial dilutions. Treatments were applied to 4.5 cm Whatman #1 filter paper disks in 100 μl aliquots. Controls received 100 μl of glass distilled benzene. The solvent was evaporated for approximately 15 minutes and the filter papers were then placed on the agar medium.
Callus tissue was then broken into pieces of approximately the same size (10 mg) and placed in the petri dishes on the treated filter paper (one piece per dish). For experiments conducted in the light the intensity was approximately 2.0 microwatts/cm^2 -namometer. Fresh weight measurements were made after 12 days of growth.
A stock solution of octocosanol (CH3 (CH2)26 CH2 OH was prepared in the same manner as the triacontanol solutions above described.
The effect of four concentrations of triacontanol and octocosanol on tobacco callus was determined, using the materials and procedures above described in this Example. The dishes were tared and weighed at the end of 10 days. The results are illustrated in FIG. 6 of the drawings.

[5] = test system: oat first-internode; settings: published reports; cited from earlier work

## CCCCCCCCCCCCCCCCCCCCCCCCCCCCCCO [Triacontanol, 1-triacontanol]
[1]; multiple applications
  Dry wt: 286 mg/seedling
[1]; multiple applications, time period 0-2
  Water uptake per day: 14.2 mL
[1]; multiple applications, time period 3-5
  Water uptake per day: 22.6 mL
[1]; multiple applications, time period 6-7
  Water uptake per day: 33.5 mL
[1]; multiple applications, time period 8-9
  Water uptake per day: 40.2 mL
[1]; multiple applications, time period 10-12, two cups dry at harvest
  Water uptake per day: 57.0 mL
[1]; single application
  Dry wt: 273 mg/seedling
[1]; single application, time period 0-2
  Water uptake per day: 13.9 mL
[1]; single application, time period 3-5
  Water uptake per day: 21.0 mL
[1]; single application, time period 6-7
  Water uptake per day: 30.0 mL
[1]; single application, time period 8-9
  Water uptake per day: 35.8 mL
[1]; single application, time period 10-12, two cups dry at harvest
  Water uptake per day: 56.6 mL
[2]; 0-8 hours
  LAR (Leaf Area Ratio): 0.16
  NAR (Net Assimulation Rate): 3.39 mg plant wt per cm^2 per day
  RGR (Relative Growth Rate): 0.52 mg dry weight per mg original
[2]; 9-24 hours
  LAR (Leaf Area Ratio): 0.15
  NAR (Net Assimulation Rate): 0.90 mg plant wt per cm^2 per day
  RGR (Relative Growth Rate): 0.14 mg dry weight per mg original
[2]; 25-72 hours
  LAR (Leaf Area Ratio): 0.16
  NAR (Net Assimulation Rate): 1.03 mg plant wt per cm^2 per day
  RGR (Relative Growth Rate): 0.17 mg dry weight per mg original
[2]; 73-216 hours
  LAR (Leaf Area Ratio): 0.13
  NAR (Net Assimulation Rate): 1.15 mg plant wt per cm^2 per day
  RGR (Relative Growth Rate): 0.15 mg dry weight per mg original
[2]; first 8 hour and subsequent 16 hour period
  net assimilation (NAR) greater than control plants: 37%
[3]; filter paper, 0.01
  Dry wt: 382 mg/seedling
[3]; filter paper, 0.10
  Dry wt: 430 mg/seedling
[3]; foliar, 0.01
  Dry wt: 405 mg/seedling
[3]; foliar, 0.10
  Dry wt: 407 mg/seedling
[4]
  optimum concentration for growth: 0.1 μg per dish
[4]; listed as 1-triacontanol
  growth over the control: significant increases in growth
[4]; listed as triacontanol
  growth over the control: significant increases in growth over the control
[5]
  growth, oat first-internode method: not active
